Test results: a melting point compilation (Tetko et al.; mined from patent text by program, amines drawn as free bases though some values may be those of a salt)

Row | melting point | Compound
1 | 159 to 161 °C | CCCCc1ncc(C(=O)OCC)c(N(C)Cc2ccc(-c3ccccc3-c3nnn[nH]3)cc2)n1
2 | 247 to 248 °C | CC1CC(=O)NN=C1c1ccc(N2CCN(C#N)CC2)c([N+](=O)[O-])c1 (centres undefined)
3 | 141 to 143 °C | Cc1ccccc1-n1c(-c2sc(Nc3ccccc3)nc2-c2ccccc2)nc2ccccc2c1=O
4 | 69 °C | CCCCCCCCC#CCC#CCC#CCS(=O)(=O)CC(=O)OC
5 | 142 to 144 °C | COc1ccc(C(=O)CCC(=O)O)c(Cl)c1Cl
6 | 195 °C | NC(=O)N(CCCl)C(c1ccccc1)P(=O)(O)O (centres undefined)
7 | 231 to 232 °C | O=C(Nc1ccc(F)c(F)c1)c1cc(-c2ccc(F)cc2F)ccc1O
8 | 203 to 205 °C | CCN1C(=O)C2=C(c3cccc(Cl)c3)N(CC)C(=O)C2=C1c1cccc(Cl)c1
9 | 243 to 244 °C | COc1cc2nc(N3CCc4ccc(NC(C)=O)cc4C3)nc(N)c2cc1OC
10 | 116 to 117 °C | CC(C)(C)OC(=O)NCCOc1noc2ccc(F)c(C#N)c12
11 | 110 to 112 °C | Cc1nn(-c2cccc(C(F)(F)F)c2)cc1C(=O)N(CC(=O)O)c1ccc(OCC(C)(C)C)c(C#N)c1
12 | 299 to 300 °C | O=C(Nc1ccc2[nH]c(=O)[nH]c2c1)C(=O)N1CCC(Cc2ccc(Cl)cc2)CC1
13 | 180 to 181 °C | COc1cc(-c2nc(C)c(C(=O)NN)s2)cc(OC)c1OC
14 | 55 to 57 °C | CCCc1c(OCC2(O)CCCCC2Sc2ccc(C(=O)CCC(=O)O)cc2)ccc(C(C)=O)c1O (centres undefined)
15 | 146 to 148 °C | CN(C)CCCNC(=O)c1c2ccc(Cl)cc2c(-c2ccccc2)n1C
16 | 207 to 210 °C | CN1C(=O)NC(Cc2c[nH]c3ccccc23)C1=O (centres undefined)
17 | 179 to 181 °C | C/C(=C\c1ccc(C(=O)O)cc1)c1ccc2c(c1)C(C)(C)CCO2
18 | 146 to 148 °C | COc1nc(NC(=O)NS(=O)(=O)c2ccsc2C(=O)C2CC2)nc(OC)n1
19 | 148 to 149 °C | Cc1cc(C)cc(C(=O)N2CC[C@H](NCc3ccnc4ccccc34)C[C@H]2Cc2ccc(Cl)cc2)c1 (relative stereo)
20 | 309 to 313 °C | Nn1cc(C(=O)O)c(=O)c2cc3c(cc21)OCO3
21 | 146 to 148 °C | O=C1SCCN1Cc1ccc([N+](=O)[O-])cc1
22 | 188 to 189 °C | N=C(Nc1cc(NC(=O)/C=C/c2ccccc2C(F)(F)F)ccc1Cl)c1ccccc1
23 | > 300 °C | Nc1nc2c(ncn2Cc2cccnc2)c(=O)[nH]1
24 | 93 to 96 °C | O=CCC1Cc2cc(Cl)c(Cl)cc2C1=O (racemic)

Row | melting point | Compound
25 | 148 °C | COc1cc(-c2ccc(Cl)cc2)cc2oc(=O)c(C)c(C)c12
26 | 201 to 203 °C | COc1ccc(-n2c(=O)cc(C(F)(F)F)n(C)c2=O)c2c1CC(C)(C)O2
27 | 165 °C | Cc1cc(C)c(=O)n(C(C(=O)O)c2ccc3c(c2)OCO3)n1 (centres undefined)
28 | 138 to 139 °C | CCCCOc1c(C(OC(N)=O)C(C)(C)C)n(CC(C)(C)C)c(=O)c2ccc(OCC)cc12 (centres undefined)
29 | 111 to 113 °C | CC(Oc1ncn(-c2cccc(Br)c2)n1)C(=O)N1CCCC1 (centres undefined)
30 | 105 to 107 °C | CCCCCCCCCCCCCCCCCCOC(=O)c1ccc(Cn2c(=S)sc3ccccc32)cc1
31 | 175 to 178 °C | COc1cc(C=Cc2nc3c(s2)NCCCC3)ccc1O
32 | 70 to 71 °C | CCC=C1SC(=O)N(CCCCOc2cccn3ccnc23)C1=O
33 | 142 to 145 °C | C#CCOc1cc(-c2nc3n(c2Cl)CCCC3)c(F)cc1Cl
34 | 199 °C | O=C1CNc2ccc(F)cc2O1
35 | 122 to 123 °C | NCCOc1cccc2c1c1cccc(F)c1n2Cc1ccccc1
36 | 151 °C | Cc1cc(C)nc(SSc2ccc([N+](=O)[O-])cc2C(Cl)(Cl)Cl)n1
37 | 72 to 74 °C | COc1c(C)cc(C)c2c1C(=O)C1CCCCC21 (centres undefined)
38 | 108 °C | OC(CCl)(Cc1ccc(Cl)cc1)c1ccc2c(c1)Cc1cc(Cl)ccc1-2 (centres undefined)
39 | 207 to 208 °C | CC(=O)Oc1ccc(C(=O)Nc2cc([N+](=O)[O-])ccc2C)cc1
40 | 127 to 129 °C | CCN1C(=O)C(C)(C)C(=O)N(C)c2cc(CN(CCn3ccc4oc(C)cc4c3=O)Cc3cccnc3COC)ccc21
41 | 166 to 167 °C | O=C(O)CCc1cn(Cc2ccc(OCc3ccc4ccccc4n3)nc2)nc1-c1ccccc1
42 | 100 to 102 °C | c1ccc(SCc2cc3ccccc3[nH]2)cc1
43 | 215 to 216 °C | NC(=O)NCc1ccc(-c2ccc3oc([N+](=O)[O-])c(-c4ccccc4)c3c2)cc1
44 | 199 to 200 °C | CC(C)(C)c1ccc(C(NC(=O)c2c(F)cccc2F)N2CCOCC2)cc1 (centres undefined)
45 | 154 to 155 °C | CC(=O)C1=C(C)N=C(c2ccccc2)NC1c1cccc([N+](=O)[O-])c1 (centres undefined)
46 | 87 °C | O=C(CBr)C1=Cc2ccccc2OC1
47 | 73 to 74 °C | COC(=O)CCc1ccc(OC2Cc3ccccc3C2)cc1
48 | 70 to 71 °C | CCCCCCCCCCCCCCCCSCC(CNS(=O)(=O)CCCI)NC(=O)NC (centres undefined)

Row | melting point | Compound
49 | 220 to 222 °C | CN(Cc1cc(C(F)(F)F)cc(C(F)(F)F)c1)C(=O)c1c(-c2ccc(F)cc2)c2nccnc2c(=O)n1C
50 | 252 to 254 °C | NNC(=O)c1ncnc2[nH]ccc12
51 | 95 to 96 °C | c1ccc2c(c1)CCN(c1ccncc1)C2
52 | 102 to 103 °C | CC(C)(C)OC(=O)[C@@H]1CCCN1C(=O)C1CCC1SC(=O)c1ccccc1 (some centres undefined)
53 | 102 to 104 °C | CCCNC(=O)C1(CCCCC#N)c2ccccc2-c2ccccc21
54 | 173 to 174 °C | CCCCS(=O)(=O)NC1Cc2ccc(C3=NNC(=O)CC3)cc2C1 (single isomer, unassigned; (+))
55 | 162 °C | CC(OCCc1ccc([N+](=O)[O-])cc1)OC1C(O)C(CO)OC1n1ccc(=O)[nH]c1=O (centres undefined)
56 | 87 to 88 °C | CC(=NOCCO)c1ccc(S(=O)(=O)c2ccccc2)cc1
57 | 172 to 173 °C | Cc1cc(C)nc(NC(=O)NS(=O)(=O)c2sccc2-c2ccon2)n1
58 | 107 to 108 °C | CCc1ccn(-c2ccc(S(C)(=O)=O)cc2)c1-c1ccc(F)cc1
59 | 160 to 162 °C | N#CNc1nccc(Oc2ccc(NC(=O)c3cc(F)cc(N4CCCCC4)c3)c3ccccc23)n1
60 | > 275 °C | Cc1ccccc1-n1c(-c2sc(Nc3ccc(Cl)cc3)nc2-c2ccccc2)nc2ccccc2c1=O
61 | 134 °C | CC(C)(C)OC(=O)NCCNC(=O)c1cc(Br)ccn1
62 | 95.5 to 98 °C | COc1ccccc1NCN1CCOC1=O
63 | 126 to 128 °C | CCCc1cc(C=CC(=O)c2ccc(O)cc2)c(OC)cc1O
64 | > 250 °C | O=C(C=CC(=O)Nc1ccccc1)NCc1cc(Br)cc2[nH]c(=O)c(=O)[nH]c12
65 | 221 °C | Cn1cc(C2=C(c3ccccc3OCC3COC(C)(C)O3)C(=O)NC2=O)c2ccccc21 (racemic)
66 | 64 °C | CCOC(=O)CC(=O)c1ccc(C#N)cc1
67 | 280 °C | CN1c2nnnn2-c2ccc(Cl)cc2C1c1ccccc1 (centres undefined)
68 | 150 to 153 °C | CSc1sc(C(=O)N(C)C2CCCCC2)c2c1-c1oncc1C(C)(C)C2
69 | 225 to 227 °C | O=C1CNC(=O)C(CSC(c2ccccc2)(c2ccccc2)c2ccccc2)N1 (centres undefined)
70 | 112 to 113 °C | Cc1c(N)c2c(c3c1C(c1ccc(C(C)C)cc1)CO3)CCC2 (centres undefined)
71 | 47 to 49 °C | CC(C)N(CCOc1ccc2oc3ccc(OCCN(C(C)C)C(C)C)cc3c2c1)C(C)C
72 | 108 to 109 °C | CC(C)c1cccc(CC(=O)O)c1OCCCc1cn(-c2ccc(C(F)(F)F)cn2)nc1C(C)C

Row | melting point | Compound
73 | 120 to 122 °C | Cc1cccc(C)c1NC(=O)N=C1CCC(C)N1C (centres undefined)
74 | 142 to 143 °C | C(=C\c1nc(COc2ccc(CCCn3ccnn3)cc2)co1)/c1ccccc1
75 | 158 to 160 °C | Nc1c(C(=O)c2ccccc2OCc2ccccc2)oc2ccc(Cl)cc12
76 | 93 to 95 °C | Cn1ncc2c1CCC(=CO)C2=O
77 | 185 °C | COC(OC)C1CN=C(c2cc3sc(C)c(N(C)S(=O)(=O)c4cccs4)c3[nH]2)S1 (centres undefined)
78 | 275 to 277 °C | Nc1c(-c2cc(Cl)ccc2O)c2c(Cl)cc(Cl)cc2[nH]c1=O
79 | 160 to 163 °C | CCCNC(=O)n1c(=O)cc2n1C(c1cccc([N+](=O)[O-])c1)C(C(=O)OC(C)C)=C(C)N2 (centres undefined)
80 | 207 to 208 °C | Cc1cc(C(=O)Nc2c(NC(=O)CCl)ccc3c2C(=O)c2ccccc2C3=O)c(C)o1
81 | 223 to 225 °C | CCOC(=O)c1ccccc1-c1ccc(Nc2cc(CC)nc3ccnn23)cc1
82 | 265 to 266 °C | CCCn1c(=O)c2[nH]c(/C=C/c3cccc(F)c3)nc2n(CCC)c1=O
83 | 107 to 111 °C | O=C(O)CN1C(=O)C(NC(=O)[C@@H](S)Cc2ccccc2)CCCc2ccccc21 (some centres undefined)
84 | 135 to 139 °C | Cc1ccc(Nc2ccccc2[N+](=O)[O-])c(C#N)c1
85 | 231 to 233 °C | CC(c1oc2ccccc2c(=O)c1-c1cccc(F)c1)n1nc(-c2cccc3[nH]ncc23)c2c(N)ncnc21 (centres undefined)
86 | 69 to 70 °C | Fc1ccc(C(CN2CCCC2)=C2SCCCS2)cc1
87 | 50 to 50.5 °C | O=[N+]([O-])c1cc(OCc2ccccc2)ccc1Cl
88 | 238 to 239 °C | COc1ccc2c(c1)c1c(n2Cc2ccc(C(C)(C)C)cc2)COC(=O)C1=O
89 | 178 to 185 °C | ON=C(c1cccc(F)c1)c1ccc(O)c(Cl)c1Cl
90 | 151 to 159 °C | OCC1CCC2=C(Cc3ccccc32)C1CN1CCCCC1CO (centres undefined)
91 | 232 to 234 °C | Cc1oc2c(C)c(C)c(NC(=O)c3ccc(F)cc3)c(C)c2c1-c1ccc(F)cc1
92 | 210 to 213 °C | CCOc1cc2cc3c(c(-c4ccncc4)c2cc1OCC)C(=O)NC3=O
93 | 91 to 92 °C | CCCC(SCC(N)=O)c1ccc2c(c1)OCO2 (centres undefined)
94 | 102 to 104 °C | Cc1ccc(-c2ccccc2C(=O)NCCC#N)cc1

Row | Compound | melting point
95 | O=C(CCl)c1cccn1C(c1ccccc1)c1ccccc1F (centres undefined) | 86 to 91 °C
96 | CCCCP(=O)(O)CC(C)(O)CN (centres undefined) | 187 to 189 °C
97 | O=C1c2ccccc2OC1Br (centres undefined) | 60 °C
98 | CCN(Cc1ccc(Cl)nc1)C(=NC)C(=Cc1ccco1)[N+](=O)[O-] | 155 to 156 °C
99 | Cc1c(C=CCN2CC=C(c3ccccc3)CC2)cnn1-c1ncccn1 | 112 to 114 °C
